# How the values were obtained:
# [1] = tested on: nucleus pulposus of the L3-4 intervertebral disc; test: Flexion stiffness of the injected intervertebral disc (Example 1); assay type: in vivo, pig; conditions: injected disc L 3-4; 0.2 mL of 1.34 mol/L lactic acid into nucleus pulposus; seven days after injection; mean ± SD; two pigs
# Description: Access to the L4-5 intervertebral disc was obtained through a lateral incision between the lowest rib and the iliac crest on the left side of each pig. Thereafter, the L3-4 intervertebral disc was incised with a scalpel. […] The composition was injected in a single step at a single occasion.
# [2] = tested on: nucleus pulposus of the L3-4 intervertebral disc; test: Dimension of the disc space after administration (Example 1); assay type: in vivo, pig; conditions: injected disc L 3-4; 0.2 mL of 1.34 mol/L lactic acid; seven days after injection; mean ± SD
# Description: 110. performing a cross-section of the discs and measuring the length (anterio-posterior direction) and the width (bilateral direction) of the disc space. Two pigs were anesthetized and placed on their right side. Access to the L4-5 intervertebral disc was obtained through a lateral incision between the lowest rib and the iliac crest on the left side of each pig. Thereafter, the L3-4 intervertebral disc was incised with a scalpel. […] The composition was injected in a single step at a single occasion. The intervertebral discs (L2-3, L3-4, L4-5) were cross-sectioned and the length of the disc space (anterio-posterior direction) and the width (bilateral direction) of the disc space were measured by calipers. In FIGS. 5 and 6, an intervertebral disc is schematically shown in cross-section. The intervertebral disc comprises the annulus fibrosus 10, and a disc space defined by the annulus fibrosus and comprising the nucleus pulposus 11.
# pig = test: Tolerability and injection site observation (Example 1); assay type: in vivo; conditions: two pigs
# Description: Two pigs were anesthetized and placed on their right side. Access to the L4-5 intervertebral disc was obtained through a lateral incision between the lowest rib and the iliac crest on the left side of each pig. Thereafter, the L3-4 intervertebral disc was incised with a scalpel.
# The composition was injected in a single step at a single occasion.
# At harvest, the pigs were killed.
# The injection site was observed by the naked eye. […] The segment of the vertebral column extending from the lumbar vertebra L2 to the sacral vertebra S1 was removed. The facet joints were removed, thus allowing full flexibility of the discs with no restraints from other structures.
# [3] = tested on: intervertebral disc L1/2 to L3/4; test: Disc height on post-mortem X-ray (Example 3); assay type: in vivo, pig; conditions: 120 or 240 mg/ml lactic acid + iohexol, 0.2 ml; both doses; 2, 28 and 84 days; FIG. 16
# Text: (§1) Eleven pigs were anesthetized and placed on their right side. Through a lateral incision the discs to be injected were exposed. […] After 2, 28 or 84 days the pigs were killed and the lumbar spine was harvested. All musculature was removed as well as the facet joints and ligamentum flavum between the L1/2, L2/3 and L3/4 vertebrae. The following endpoints were used: • A. X-ray pictures were taken at the day of injection and at the harvest day to ascertain that the injection was correctly placed and to determine if the discs were radio-opaque after 2, 28 and 84 days. • B. The X-rays taken post-mortem were used to measure disc height. • C. The sectioned discs were photographed and the degree of fibrotisation was visually evaluated.
# [4] = tested on: intervertebral disc L1/2 to L3/4; test: Visual evaluation of fibrotisation of the nucleus space (Example 3); assay type: in vivo, pig
# Text: as §1
structure (smiles),measurement,setting,value
CC(O)C(=O)O (stereo not drawn) [lactic acid],Difference in distance between transverse processes before and upon full lateral flexion,[1],0.3 ± 0.6 mm
same,Average antero-posterior length of the disc space,[2],13.5 ± 1.3 mm
same,Average bilateral width of the disc space,[2],4.0 ± 1.4 mm
same,Adverse reaction such as decreased mobility or vocalization,"pig; 0.2 mL of 1.34 mol/L lactic acid intradiscal, period of seven days until harvest",no adverse reaction
same,"Adverse reaction at the injection site (bleedings, inflammation or necrosis), naked eye",pig; at harvest seven days after injection,No adverse reaction at the injection site
same,"Disc height, discs injected with lactic acid versus placebo (X-ray)",[3],no difference in height
same,Fibrotisation of the nucleus space,"[4]; 84 days after injection, some discs, FIG. 17a",fibrosis was close to complete
same,Fibrotisation of the nucleus space,"[4]; after 2 days, 120 or 240 mg/ml lactic acid, 0.2 ml, some discs",tendency to fibrotisation
same,Fibrotisation of the nucleus space,"[4]; after 28 days, 120 or 240 mg/ml lactic acid, 0.2 ml",fibrotisation was evident

# From patent US10080729B2, “Composition for use in the treatment of intervertebral misalignment” (STAYBLE THERAPEUTICS AB, priority 2015, dated 2018)
